Common to all, as to assay type: in vivo
The test system of assay [1] is Lolium perenne (LOLPE). As to the kind of experiment: Pre-emergence herbicidal activity, glasshouse pot test. The note with it: Lolium perenne, 480 h, rate 500 g/ha, evaluated after 20 days, read-out: Pre-emergence activity, LOLPE (100=total damage to plant; 0=no damage to plant). As for the experimental part:
(§1) Monocotyledonous and dicotyledonous test plants were sown in sterilised standard soil in pots. After cultivation for one day (pre-emergence) or after 10 days cultivation (post-emergence) under controlled conditions in a glasshouse, the plants were sprayed with an aqueous spray solution derived from the formulation of the technical active ingredient in 0.6 ml acetone and 45 ml formulation solution containing 10.6% Emulsogen EL (Registry number 61791-12-6), 42.2% N-methylpyrrolidone, 42.2% dipropylene glycol monomethyl ether (Registry number 34590-94-8) and 0.2% X-77 (Registry number 11097-66-8). The test plants were then grown in a greenhouse under optimum conditions until, 14 or 15 days later for post-emergence and 20 days for pre-emergence, the test was evaluated (100=total damage to plant; 0=no damage to plant). Alopecurus myosuroides (ALOMY), Avena fatua (AVEFA), Lolium perenne (LOLPE), Setaria faberi (SETFA), Digitaria sanguinalis (DIGSA), Echinochloa crus-galli (ECHCG) Pre-Emergence Activity

Assay [2] relates to Setaria faberi (SETFA). The description is as above. The conditions noted are these: Setaria faberi, 480 h, rate 500 g/ha, evaluated after 20 days, read-out: Pre-emergence activity, SETFA (100=total damage to plant; 0=no damage to plant). Here is the method: as §1
In assay [3] the test system is Echinochloa crus-galli (ECHCG). The assay is described as above. The conditions noted are these: Echinochloa crus-galli, 480 h, rate 500 g/ha, evaluated after 20 days, read-out: Pre-emergence activity, ECHCG (100=total damage to plant; 0=no damage to plant). Here is the method:
as §1

Assay [4] has as its system Avena fatua (AVEFA). The assay is described as above. The conditions noted are these: Avena fatua, 480 h, rate 500 g/ha, evaluated after 20 days, read-out: Pre-emergence activity, AVEFA (100=total damage to plant; 0=no damage to plant). Here is the method: as §1
Assay [5] relates to Alopecurus myosuroides (ALOMY). Described as above. The conditions noted are these: Alopecurus myosuroides, 480 h, rate 500 g/ha, evaluated after 20 days, read-out: Pre-emergence activity, ALOMY (100=total damage to plant; 0=no damage to plant). As for the experimental part:
as §1

Assay [6] concerns Digitaria sanguinalis (DIGSA). The description is as above. The note with it: Digitaria sanguinalis, 480 h, rate 500 g/ha, evaluated after 20 days, read-out: Pre-emergence activity, DIGSA (100=total damage to plant; 0=no damage to plant). As for the experimental part:
as §1

The test system of assay [7] is Lolium perenne (LOLPE). As to the kind of experiment: Post-emergence herbicidal activity, glasshouse pot test. The conditions noted are these: Lolium perenne, evaluated after 14 or 15 days, read-out: Post-emergence activity, LOLPE (100=total damage to plant; 0=no damage to plant); for pest or weed control at 500 g/ha: rate 500 g/ha; for pest or weed control at 125 g/ha: rate 125 g/ha. As for the experimental part:
as §1, with “Post-Emergence” for “Pre-Emergence”

In assay [8] the test system is Setaria faberi (SETFA). Described as above. The note with it: Setaria faberi, evaluated after 14 or 15 days, read-out: Post-emergence activity, SETFA (100=total damage to plant; 0=no damage to plant); for pest or weed control at 500 g/ha: rate 500 g/ha; for pest or weed control at 125 g/ha: rate 125 g/ha. Here is the method:
as §1, with “Post-Emergence” for “Pre-Emergence”

The subject of assay [9] is Echinochloa crus-galli (ECHCG). The assay is described as above. The conditions noted are these: Echinochloa crus-galli, evaluated after 14 or 15 days, read-out: Post-emergence activity, ECHCG (100=total damage to plant; 0=no damage to plant); for pest or weed control at 500 g/ha: rate 500 g/ha; for pest or weed control at 125 g/ha: rate 125 g/ha. Here is the method:
as §1, with “Post-Emergence” for “Pre-Emergence”

The subject of assay [10] is Avena fatua (AVEFA). The assay is described as above. The note with it: Avena fatua, evaluated after 14 or 15 days, read-out: Post-emergence activity, AVEFA (100=total damage to plant; 0=no damage to plant); for pest or weed control at 500 g/ha: rate 500 g/ha; for pest or weed control at 125 g/ha: rate 125 g/ha. Here is the method: as §1, with “Post-Emergence” for “Pre-Emergence”

Assay [11] has as its system Alopecurus myosuroides (ALOMY). The assay is described as above. The conditions noted are these: Alopecurus myosuroides, evaluated after 14 or 15 days, read-out: Post-emergence activity, ALOMY (100=total damage to plant; 0=no damage to plant); for pest or weed control at 500 g/ha: rate 500 g/ha; for pest or weed control at 125 g/ha: rate 125 g/ha. Here is the method:
as §1, with “Post-Emergence” for “Pre-Emergence”

The test system of assay [12] is Digitaria sanguinalis (DIGSA). Described as above. The note with it: Digitaria sanguinalis, evaluated after 14 or 15 days, read-out: Post-emergence activity, DIGSA (100=total damage to plant; 0=no damage to plant); for pest or weed control at 500 g/ha: rate 500 g/ha; for pest or weed control at 125 g/ha: rate 125 g/ha. As for the experimental part: as §1, with “Post-Emergence” for “Pre-Emergence”

With `CCc1cc(C)cc(CC)c1C1=C(O)CC(C2(SC)CC2)CC1=O` (centres unmarked) [Compound T21], the pest or weed control at 500 g/ha in [1], in assay [2], in [3], in assay [4], in assay [5] and in assay [6] was 100% throughout. Besides, the pest or weed control at 500 g/ha in assay [7] stood at 90%; in assay [8], 90%; in [9], 90%; in assay [10], 100%; in [11], 90%; in assay [12], 100%.

On to `CCOC1=C(c2c(CC)cc(C)cc2CC)C(=O)CC2(CCOCC2)C1` [Compound P33], for which the pest or weed control at 500 g/ha in [1] was 50%; in assay [2], 10%; in [3], 10%; in assay [4], 30%; in [5], 90%; in [6], 70%. Further, the pest or weed control at 125 g/ha turned out to be 0% in assay [7]; 0% in assay [8]; 0% in assay [9]; 0% in assay [10]; 20% in [11]; 30% in assay [12].

Consider `CCc1cc(C)cc(CC)c1C1=C(OS(=O)(=O)Cc2ccccc2)CC2(CCOCC2)CC1=O` [Compound P26], for which the pest or weed control at 500 g/ha in assay [1] was determined as 90%; in [2], 70%; in assay [3], 40%; in [4], 80%; in assay [5], 80%; in assay [6], 60%. For the same molecule, the pest or weed control at 125 g/ha in assay [7] came to 0%; in assay [8], 0%; in assay [9], 0%; in assay [10], 0%; in [11], 10%; in [12], 10%.

For `CCc1cc(C)cc(CC)c1C1=C(OC(=O)C(C)(C)C)CC(C(C)(C)SC)CC1=O` (centres unmarked) [Compound P52], the pest or weed control at 500 g/ha in assay [2], in assay [3], in assay [4], in assay [5], in [6] and in assay [7] was 100% in each case. Moreover, the pest or weed control at 500 g/ha in assay [8] came to 90%; in assay [9] it was 90%; in assay [10], 90%; in [11] it was 100%; in [12], 90%.

For `CCc1cc(C)cc(CC)c1C1=C(O)CC2(CCSCC2)CC1=O` [Compound T11], the pest or weed control at 500 g/ha in assay [1] amounted to 100%; in assay [2] it was 90%; in assay [3], 80%; in assay [5] it was 80%; in assay [6] it was 90%; in assay [7], 70%. Also, the pest or weed control at 500 g/ha is 90% in assay [8]; 90% in [9]; 80% in [10]; 80% in assay [11]; 90% in assay [12].

On to `CCSC(C)CC1CC(=O)C(c2c(C)cc(C)cc2C)=C(O)C1` (centres unmarked) [Compound T9], for which the pest or weed control at 500 g/ha in [1] turned out to be 0%; in assay [4] it was 30%; in [5], 30%; in [6], 40%; in assay [7], 50%; in assay [8] it was 80%. Besides, the pest or weed control at 500 g/ha in assay [9] is 80%; in assay [10], 50%; in [11], 50%; in [12] it was 90%.

Regarding `CCCS(=O)(=O)C(C)CC1CC(=O)C(c2c(CC)cc(C)cc2CC)=C(O)C1` (centres unmarked) [Compound T36], the pest or weed control at 500 g/ha in assay [1] was 100%; in [2], 100%; in [4], 90%; in assay [5], 100%; in assay [6] it was 100%; in assay [7] it was 90%. The pest or weed control at 500 g/ha was determined as 50% in assay [8]; 100% in [9]; 90% in [10]; 90% in [11]; 70% in [12].

As to `CCc1cc(C)cc(CC)c1C1=C(O)CC(C2CCCO2)CC1=O` (centres unmarked) [Compound T8], the pest or weed control at 500 g/ha was determined as 100% in assay [1]; 100% in [2]; 100% in assay [3]; 80% in assay [4]; 100% in assay [5]; 100% in [7]. The pest or weed control at 500 g/ha in assay [8] turned out to be 90%; in [9], 100%; in assay [10] it was 90%; in assay [11], 100%; in assay [12] it was 90%.

`C=CCOC1=C(c2c(CC)cc(C)cc2CC)C(=O)CC2(CCOCC2)C1` [Compound P34]: the pest or weed control at 500 g/ha in assay [1] was 100%; in [2], 30%; in assay [3] it was 30%; in assay [4] it was 70%; in [5], 100%. Also, the pest or weed control at 125 g/ha in [7] amounted to 0%; in assay [8] it was 0%; in assay [9], 0%; in assay [10], 0%; in assay [11] it was 0%; in [12], 30%.
